Laboratory results reported in US20060205642A1, “Oral methods of treatment using proANF peptides” (priority 2005, published 2006).
“Also recorded” adds a separate entry of the source.

What was measured:
[1] = Rat clearance model (diuresis and salt excretion); type: in vivo, Munich-Wistar rats; settings: for FENa, fractional excretion of sodium / UNa, urinary sodium / UNaV, urinary sodium excretion rate / V, urine flow rate: means ± SE
Description: The same three peptides and ANF from Example I are tested using the rat clearance model. Six control rats and six experimental Munich-Wistar rats, each weighing 150-200 grams, are used for each peptide, with catheters being placed in both jugular veins and in the femoral artery. The ureters are cannulated for simultaneous urine collections with femoral artery blood collections.
After inserting the catheters, a stabilization of one hour is allowed. A 10 μg/kg bolus of each of the respective human sequences of the peptides is given via the jugular vein to six experimental rats followed by a sustaining infusion of 0.1 μg/kg/min for 60 minutes. Blood and urine samples are collected at 20 minute intervals during this 60 minute infusion. In both the control and experimental animals, hematocrits and plasma sodium values remained at the same levels pre- and post-infusion while blood pressure decreased with each of these peptides (see Attachment B).

[2] = Infusion into healthy human subjects; type: in vivo; settings: healthy humans
Description: Infusion of these peptides into healthy human subjects was performed as follows: Human pro-ANF 1-30, pro-ANF 31-67, and pro-ANF 79-98, and hANF (i.e., pro-ANF 99-126, were synthesized by Peninsula Laboratories (Belmont, Calif.). High pressure liquid chromatography (HPLC) analysis was performed on a sample of each of the four peptides to ensure purity. The peptides were dissolved in a sterile 0.9% saline solution to a concentration of 100 μg/ml and dispensed in 2 and 5 ml aliquots into sealed sterile vials. At the time of dispensing, randomly selected vials were tested for pyrogens and sterility. Prior to labeling the vials, the actual peptide content of the dispensed solution were determined by direct radioimmunoassay to account for any possible absorption of the respective peptides to the walls of the vials. All vials were then stored at −80° C. until thawed for individual study.
Normal healthy subjects were chosen on the basis of age (between 20 and 50 years), physical examination and biochemical screenings. The subjects consumed their normal diets prior to testing. The subjects fasted overnight and were tested in the morning in the seated position. Intravenous catheters were placed bilaterally for the administration of pro-hANF 1-30, pro-hANF 31-67, pro-hANF 79-98 and hANF (pro-hANF 99-126) and for blood sampling. After completion of a 45-minute equilibration period, there were three […] phases of the study: baseline, experimental infusion (60 minutes) and recovery (3 hours). The baseline phase consisted of two 30 minute urine collection periods, the experimental phase consisted of three 20 minute urine and plasma collection periods, and the recovery phase consisted of two 30 minute urine and plasma collection periods each hour for three hours post-infusion. Urine output was replaced on a milliliter per milliliter basis throughout the study by administering oral water or orange juice. Urine samples were obtained by voiding at the designated collection periods.
The 36 subjects were divided into 6 groups. One group (i.e., the control group) received a placebo infusion of 0.9% sodium chloride during the experimental infusion phase. […] The four remaining groups of six subjects each received human pro-hANF 1-30, pro-hANF 31-67, pro-hANF 79-98 and HANF. The four groups received the peptides by continuous infusion at the rate of 0.1 μg/kg per minute. The volume administered per hour during the experimental infusion phase was 10 ml for all four peptides and the placebo. All infusions were given by a constant-rate infusion pump, with the final concentrations of prohANFs adjusted for the subjects' body weight. The subjects heart rate and cuff blood pressure were taken at 5 minute intervals throughout the study. The excreted urine was analyzed for sodium concentration.

porcine aortas = assay: Vasodilation of porcine aortic strips preconstricted with 0.3 micromolar phenylephrine
Description: 30 Kg pigs are sacrificed, and aortic strips are harvested. The strips are attached to F-60 transducer (Narco-BioSystems, Houston, Tex.) and attached to a physiography (Narco-BioSystems) while being submerged in a muscle tissue bath comprising a Krebs Ringer solution at 37° C., with 95% O2-5% CO2, bubbled through the bath. Percentage vasodilation is measured versus time after preconstriction with 0.3 micromolar phenylephrine. […] (Vesely et al., Biochem. Biophys. Res. Commun. 148:1540-1548, 1987).

[3] = system: renal medullary Na+-K+-ATPase; assay: Inhibition of renal medullary Na+-K+-ATPase activity (FIG. 9); type: biochemical; settings: 10^-11 M, n=6, ANOVA
Text: FIG. 9. Inhibition of renal medullary Na+-K+-ATPase activity by proANF 79-98 (kaliuretic peptide), proANF 1-30 (long acting natriuretic peptide), proANF 31-67 (vessel dilator), and angiotensin II at their […] concentrations.

[4] = Ischemic nonoliguric acute renal failure (ARF) in rats; type: in vivo, Sprague-Dawley rats
Description: Ischemic nonologuric acute renal failure (ARF) was induced in 24 male Sprague-Dawley rats (Zivc-Miller), weighing 200-270 g with 50 min of ischemia. Seven of the ARF rats received proANF 31-67. There were 17 ARF rats in the control group. Each of these rats were handled identically with the control rats as well as the experimental group of rats receiving an osmotic pump placement two days after receiving a unilateral right nephrectomy followed by clamping left renal artery for 50 min. The only difference was that the control group received 0.9% saline only in their osmotic pumps, whereas the experimental group had proANF 31-67 dissolved in 0.9% saline within their osmotic pumps which pump for 72 hours into the peritoneal cavity. In the 17 control ARF rats their preischemic blood urea nitrogen (BUN) and creatinine levels of 16±1 and 0.56±0.05 mg/dl increased to 162±4 and 8.17±0.5 mg/dl, P<0.001, respect 4 of postischemia. ProANF 31-67 (0.3 μg·kg^−1·min^−1 intraperitoneally), decreased the BUN and creatinine levels to 53±17 mg/dl and 0.98±0.12 mg/dl (P<0.001) in seven animals where ARF had been established for two days. […] Acute tubular necrosis was <5% in the proANF 31-67-treated rats compared with 25% to >75% in the placebo-treated ARF animals.

[5] = A, control period (before peptide)
[6] = B, first 60-minute experiment period, 10 μg/kg bolus then 0.1 μg/kg/min
[7] = C, second 60-minute experimental period

H-EVVPPQVLSEPNEEAGAALSPLPEVPPWTGEVSPAQR-OH [proANF 31-67]
FENa, fractional excretion of sodium [1, 5]: 0.057 ± 0.012%
UNa, urinary sodium [1, 5]: 21.02 ± 4.41 meq/1
UNaV, urinary sodium excretion rate [1, 5]: 144.08 ± 56.75 μeq · min^−1 · g kidney wt^−1
V, urine flow rate [1, 5]: 2.63 ± 0.24 μl · min^−1 · g kidney wt^−1
V, urine flow rate ([1]; B, first 60-minute experiment period, 10 μg/kg bolus then 0.1 μg/kg/min via jugular vein): 9.36 ± 3.14 μl · min^−1 · g kidney wt^−1
FENa, fractional excretion of sodium [1, 6]: 0.457 ± 0.156%
UNa, urinary sodium [1, 6]: 111.73 ± 21.37 meq/1
UNaV, urinary sodium excretion rate [1, 6]: 1,057 ± 371.69 μeq · min^−1 · g kidney wt^−1
V, urine flow rate ([1]; C, second 60-minute experimental period, 10 μg/kg bolus then 0.1 μg/kg/min): 8.84 ± 1.86 μl · min^−1 · g kidney wt^−1
FENa, fractional excretion of sodium [1, 7]: 0.444 ± 0.155%
UNa, urinary sodium [1, 7]: 129.33 ± 24.73 meq/1
UNaV, urinary sodium excretion rate [1, 7]: 1,077.63 ± 306.10 μeq · min^−1 · g kidney wt^−1
potassium excretion ([1]; rat clearance model): does not cause increased potassium excretion
duration of sodium excreting effects compared to ANF [2]: significantly (P<0.001) prolonged compared to ANF; also recorded: last significantly (P<0.001) longer than ANF's effects
increase in urine volume (in words) ([2]; 100 ng/kg body wt per minute for 1 hour i.v., n=6, ANOVA): significant
sodium excretion (in words) ([2]; 100 ng/kg body wt per minute for 60 minutes, vs baseline): significantly (P<0.05) increased
systolic and diastolic blood pressures ([2]; 100 ng/kg body wt per minute i.v. for 60 min, n=6): significant; also recorded: lowers blood pressure the most
increase in cyclic GMP levels over baseline levels associated with vasodilation (porcine aortas): four-to-five fold
inhibition of renal medullary Na+-K+-ATPase activity [3]: significant at P<0.01
creatinine level ([4]; 0.3 μg·kg^−1·min^−1 intraperitoneally, seven animals, ARF established two days, control ARF rats 8.17±0.5 at day 4): 0.98 ± 0.12 mg/dL
blood urea nitrogen (BUN) level ([4]; 0.3 μg·kg^−1·min^−1 intraperitoneally, seven animals, ARF established two days, control ARF rats 162±4 at day 4): 53 ± 17 mg/dL
acute tubular necrosis ([4]; 25% to >75% in placebo-treated animals): < 5%
mortality at day 6 of ARF ([4]; 88% without proANF 31-67): 14%
left ventricular dilation (transthoracic echocardiography) ([4]; ARF rats): reversed this dilation
water excretion ([4]; doubled with ARF): further augmented
survival (Kaplan-Meir plot) ([4]; from day 4 (P<0.01) and day 5 onward (P<0.001) vs placebo-treated ARF rats): significant advantage with respect to survival
